Here are results for five compounds from US4552882A, “7-(1-Pyrrolyl) derivatives of 1-ethyl-1,4-dihydro-4-oxoquinoline-3-carboxylic acids and 1-ethyl-1,4-dihydro-4-oxo-1,8-naphthyridine-3-carboxylic acids and their use as antimicrobial agents” (Provesan, SA, priority 1983, dated 1985).

The subject of data set [1] is Klebsiella pneumoniae ATCC 10031. Nature of the data set: MIC in vitro. The format is cell-based. Conditions: ATCC10031, Dextrose agar, 37° C., 20 hours. How it is done: (§1) (G. L. Daquet and Y. A. Chabbect, Techniques en bacteriologie (Bacteriological techniques), vol. 3, Flammarion Medecine Sciences, Paris, 1972 and W. B. Hugo and A. D. Rusell, Pharmaceutical Microbiology, Blackwell Scientific Publications, London, (1977)). Antibiotic medium no. 1 (seed agar) (Oxoid CM 327) Tryptone-soya broth (Oxoid CM 129) Ringer's physiological solution 1/4 (oxoid BR 52) Dextrose agar (BBL-11165) 0.1 N NaOH "Klebsiella pneumoniae" ATCC 10031 Each of the microorganisms is seeded by streaking in tubes of Antibiotic medium No. 1 (seed agar), which are then incubated at 37° C. for 20 hours. Using a culture loop, the cultures are then seeded in tryptone-soyabroth and incubated at 37° C. for 20 hours. The culture obtained is diluted to 1/4 with Ringer's physiological solution, so as to obtain a standardized suspension of 10^7 -10^9 cfu/ml for each organism. Starting from a solution of 1,000 μg/ml in 0.1 N NaOH, each product is diluted in Dextrose agar (previously melted and maintained at 50° C.), with successive dilutions so as to obtain the following concentrations: 64--32--16--8--4--2--1--0.5--0.25--0.125 μg of derivative/ml medium. For each product, the solution of each concentration is subsequently distributed into Petri dishes 10 cm in diameter, with 10 ml of medium per dish and the same number of dishes as microorganisms to be tested. As soon as the medium has cooled, the dishes are seeded with the inoculations using 0.4 ml of inoculation per dish. They are spread with a Driglasky loop and the supernatant is removed. The seeded dishes are incubated at 37° C. for 20 hours.

The test system of data set [2] is Sarcina lutea ATCC 9341. Nature of the data set: MIC in vitro. Conditions: Micrococcus luteus, ATCC9341, Dextrose agar, 37° C., 20 hours. The format is cell-based. As for the experimental part: as §1, with “"Sarcina Lutea"” for “"Klebsiella pneumoniae"”, “9341” for “10031”
The subject of data set [3] is Serratia marcescens ATCC 13880. Nature of the data set: MIC in vitro. The format is cell-based. The settings on record: ATCC13880, Dextrose agar, 37° C., 20 hours. As for the experimental part:
as §1, with “"Serratia marcescens"” for “"Klebsiella pneumoniae"”, “13880” for “10031”

A short description of data set [4]: in vivo. Conditions: mouse, ip. As for the experimental part: To determine this toxicity, C.F.L.P. strain albino mice of both sexes, weighing between 19 and 25 grams, have been used as experimental animals. After an 18 hour fast period with water "ad libitum" the derivatives which are the subjects of the present invention are administered intraperitoneally in 5% suspension in gum arabic. The volume of suspension administered has in all cases been 0.4 ml/20 grams (20 ml/kg), changing the concentration of the suspension according to the dose administered.
One hour after the administration of the derivatives, the animals are supplied with Panlab standard rat-mouse feed. The period of observation of mortality has been 7 days.

Values after ≈ are worked out from the molar mass of the structure shown.

One may read the MIC as the lowest concentration that inhibits growth of the organism. By LD50 is commonly meant the dose expected to kill half of the subjects tested. Turning to `CCn1cc(C(=O)O)c(=O)c2ccc(-n3cccc3)nc21` [Example 3, 1-ethyl-1,4-dihydro-4-oxo-7-(1-pyrrolyl)-1,8-naphthyridine-3-carboxylic acid], the results for the minimum inhibitory concentration (MIC) in data set [1], in data set [2] and in data set [3] were 4 µg/mL (≈ 14.1 µM), 8 µg/mL (≈ 28.2 µM) and 16 µg/mL (≈ 56.5 µM), respectively. The compound also registered a median lethal dose (LD50) at 168 h in data set [4] of 900 mg/kg.

For the compound `CCn1cc(C(=O)O)c(=O)c2cc(F)c(-n3cccc3)cc21` [Example 2, 6-fluoro-7-(1-pyrrolyl)-1-ethyl-1,4-dihydro-4-oxo-3-quinolinecarboxylic acid], the results for the MIC in data set [1], in data set [2] and in data set [3] were 0.5 µg/mL (≈ 1.67 µM), 16 µg/mL (≈ 53.3 µM) and 2 µg/mL (≈ 6.66 µM), respectively. The compound further gave an LD50 at 168 h in data set [4] of more than 1600 mg/kg.

Turning to `CCn1cc(C(=O)O)c(=O)c2cnc(N3CCNCC3)nc21` [Pipemidic acid, reference compound], the minimal inhibitory concentration (MIC) was 2 µg/mL (≈ 6.59 µM) in data set [1], more than 64 µg/mL in data set [2] and 16 µg/mL (≈ 52.7 µM) in data set [3].

Regarding `CCn1cc(C(=O)O)c(=O)c2ccc(-n3cccc3)cc21` [Example 1, 7-(1-pyrrolyl)-1-ethyl-1,4-dihydro-4-oxo-3-quinolinecarboxylic acid], the MIC in data set [1] is 1 µg/mL (≈ 3.54 µM); in data set [2], 16 µg/mL (≈ 56.7 µM); in data set [3], 8 µg/mL (≈ 28.3 µM). Further, the 50% lethal dose (LD50) at 168 h in data set [4] was more than 800 mg/kg.

In the case of `CCn1cc(C(=O)O)c(=O)c2cc(F)c(-n3cccc3)nc21` [Example 4, 1-ethyl-1,4-dihydro-4-oxo-6-fluoro-7-(1-pyrrolyl)-1,8-naphthyridine-3-carboxylic acid], the results for the minimal inhibitory concentration (MIC) in data set [1], in data set [2] and in data set [3] were 1 µg/mL (≈ 3.32 µM), 4 µg/mL (≈ 13.3 µM) and 2 µg/mL (≈ 6.64 µM), respectively. In data set [4], this compound displayed an LD50 at 168 h of more than 1000 mg/kg.
